Test results published in publication PMC11938010, “Positive Charge in an Antimalarial Compound Unlocks Broad-Spectrum Antibacterial Activity” (JACS Au, 2025).
≈ marks a conversion by molar mass, not a printed value. Read-outs that look alike come from different tables or passages of the source.

What was measured:
in vitro = settings: human, HepG2 CC50, 48 h, MTT
[1] = test system: Plasmodium falciparum NF54; assay: P. falciparum in vitro drug sensitivity assay on asexual blood stage parasites ([3H]-hypoxanthine incorporation); assay type: cell-based; settings: Plasmodium falciparum, NF54, Table 1 and main text; read-out: PfNF54 IC50
Acinetobacter baumannii = assay: In vitro antibacterial activity (growth inhibition, OD600), A. baumannii; assay type: cell-based; settings: for MIC: read-out: Ab MIC95
[2] = test system: Streptococcus pneumoniae (DSM20566); assay: In vitro antibacterial activity (MIC), S. pneumoniae; assay type: cell-based; settings: Streptococcus pneumoniae, DSM20566, read-out: Sp MIC95
E. coli K12 = assay: In vitro antibacterial activity (growth inhibition, OD600), E. coli wild-type; assay type: cell-based; settings: Escherichia coli
[3] = test system: Staphylococcus aureus ssp. Aureus; assay: In vitro antibacterial activity (MIC), S. aureus; assay type: cell-based; settings: Staphylococcus aureus, read-out: Sa MIC95
Escherichia coli ∆tolC = assay: microbe, parasite or virus in culture; assay type: cell-based; settings: Escherichia coli
[4] = In vitro cytotoxicity by XTT assay; assay type: cell-based; settings: human, human monocyte-derived macrophages (hMdM)
[5] = test system: Pseudomonas aeruginosa PA14; assay: In vitro antibacterial activity (growth inhibition, OD600), P. aeruginosa; assay type: cell-based; settings: PA14, 50 μM compound, Table 1 and main text, read-out: PA14 inh. at 50 μM
[6] = test system: Mycobacterium tuberculosis (Mtb) strain H37Rv; assay: microbe, parasite or virus in culture; assay type: cell-based; settings: 168 h, 7 days, footnote b: not active at maximum solubility, read-out: MtbH37Rv MIC90
[7] = Table S2, with standard deviation

Compound | CC50 (in vitro) | IC50 [1] | inhibition at 50 µM (Acinetobacter baumannii; 50 μM compound, Table 1 and main text, read-out: Ab inh. at 50 μM) | MIC ([2]; Table 1 and main text) | MIC [2, 7] | inhibition at 50 µM (E. coli K12; K12, 50 μM compound, Table 1 and main text, read-out: EcK12 inh. at 50 μM) | MIC ([3]; Table 1 and main text) | MIC [3, 7] | MIC (Escherichia coli ∆tolC; read-out: EcΔtolC MIC95) | MIC (Escherichia coli ∆tolC; read-out: Ec∆tolC MIC95 (µM)) | CC90 at 24 h [4] | inhibition at 50 µM [5] | MIC90 [6] | MIC (Acinetobacter baumannii; Table S1, printed inside the inhibition column, with standard deviation, unit from Table 1 footnote) | MIC (Acinetobacter baumannii; printed inside the Ab inhibition column, Table 1 and main text) | MIC (E. coli K12; K12, Table S1, printed inside the inhibition column, with standard deviation, unit from Table 1 footnote, read-out: EcK12 MIC95)
N=C(N)NCc1ccc(NC(=O)c2cc(-c3cc(Cl)ccc3O)[nH]n2)cc1C(F)(F)F [Compound 10G] | > 50 µM | 0.25 µM | 49% | 16 µM (≈ 7.25 µg/mL) | 16 ± 5 µM (≈ 7.25 µg/mL) | 86% | 5 µM (≈ 2.26 µg/mL) | 5 ± 1 µM (≈ 2.26 µg/mL) | 3.5 µM (≈ 1.58 µg/mL) | 3.5 ± 0.8 µM (≈ 1.58 µg/mL) | > 32 µM | 55% | 8 µM (≈ 3.62 µg/mL) |  |  | 
N=C(N)N1CCN(c2cc(NC(=O)c3cc(-c4cc(Cl)ccc4O)[nH]n3)cc(C(F)(F)F)c2)CC1 [Compound 11G, N-(3-(4-Carbamimidoylpiperazin-1-yl)-5-(trifluoromethyl)phenyl)-5-(5-chloro-2-hydroxyphenyl)-1H-pyrazole-3-carboxamide] | > 25 µM | 0.5 µM |  | 28 µM (≈ 14.2 µg/mL) | 28 ± 15 µM (≈ 14.2 µg/mL) |  | 3.2 µM (≈ 1.63 µg/mL) | 3.2 ± 0.1 µM (≈ 1.63 µg/mL) | 4 µM (≈ 2.03 µg/mL) | 4 ± 1 µM (≈ 2.03 µg/mL) | > 32 µM | 25% | 8 µM (≈ 4.06 µg/mL) | 17 ± 5 µM (≈ 8.63 µg/mL) | 17 µM (≈ 8.63 µg/mL) | 48 ± 5 µM (≈ 24.4 µg/mL)
